Reference: article PMC7413516, “Antidepressant-like activity and safety profile evaluation of 1H-imidazo[2,1-f]purine-2,4(3H,8H)-dione derivatives as 5-HT1A receptor partial agonists” (PLoS ONE, 2020)
Values joined by “and” are separate entries in the source; they are usually repeats but may differ in a detail not shown here. Equal entries are not always repeated.

Key:
[1] = target: T1, muscarinic M3 receptor (M3R) (Cavia porcellus, UniProt H0W1Z3); test: Smooth muscle relaxant assay: carbachol-induced contraction of isolated guinea pig ileum; conditions: isolated guinea pig small intestine, carbachol 100 μM
T1 construct: from tissue; host or cells: isolated guinea pig ileum
Method: (§1) The experiment was carried out according to the method described previously. Male guinea pigs were sacrificed by cervical dislocation. The ileum was rapidly removed, rinsed, and cut into segments of 1.5–2.0 cm length. The tissues were mounted on a jacketed 20 mL organ bath (Tissue Organ Bath System; 750 TOBS, DMT, Denmark) filled with Krebs’s solution (NaCl 120 mM, KCl 5.6 mM, MgCl2 2.2 mM, CaCl2 2.4 mM, NaHCO3 19 mM, glucose 10 mM). The bath was aerated with 95 % O2/5 % CO2 and heated at 37°C. During the 60-min incubation period, the organ was rinsed 4 times with fresh Krebs’s buffer, and the tissues were also pre-stimulated by 60 mM KCl solution. The submaximal contraction induced by histamine (Sigma Aldrich) (2 μM) and carbachol (Sigma Aldrich) (100 μM) was evaluated in the presence and absence of the tested compounds. Amplitudes of contraction values were measured in 4 independent experiments.

normotensive rats = test: Blood pressure measurement in normotensive anesthetized rats; assay type: in vivo, Wistar rats; conditions: for DBP Mean / SBP Mean / DBP (individual animals) / SBP (individual animals): 10 mg/kg i.p.
Method: Male Wistar normotensive rats were anesthetized with thiopental (50–75 mg/kg, i.p.). The right carotid artery was cannulated with a polyethylene tube filled with heparin in saline to facilitate pressure measurement using the Datamax apparatus (Columbus Instruments, Columbus, Ohio, USA). The studied compounds were administered after a 15-min stabilization period.

human 5-HT1AR = target: T2, human 5-HT1AR (Homo sapiens, UniProt P08908); test: β-Arrestin recruitment (Tango LiveBLAzer, HTR1A-bla U2OS cells)
T2 sequence (P08908 1-422): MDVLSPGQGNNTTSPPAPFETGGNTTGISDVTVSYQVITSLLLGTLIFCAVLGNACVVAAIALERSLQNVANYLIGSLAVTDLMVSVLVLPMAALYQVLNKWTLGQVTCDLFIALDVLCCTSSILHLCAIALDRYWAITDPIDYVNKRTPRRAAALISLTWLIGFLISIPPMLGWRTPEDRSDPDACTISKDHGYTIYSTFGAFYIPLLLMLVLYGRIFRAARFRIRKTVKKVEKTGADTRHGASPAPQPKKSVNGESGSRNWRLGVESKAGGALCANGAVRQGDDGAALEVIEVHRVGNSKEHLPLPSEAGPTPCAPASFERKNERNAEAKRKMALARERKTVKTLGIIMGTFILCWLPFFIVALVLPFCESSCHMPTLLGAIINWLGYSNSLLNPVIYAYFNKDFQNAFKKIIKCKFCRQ
Method: Cells were cultured according to manufacturer’s instruction. […] This parental cell line stably expresses a beta-arrestin/TEV protease fusion protein and the beta-lactamase reporter gene under the control of a UAS response element. The Tango™ HTR1A-bla U2OS cells have been functionally validated for a response to 5-CT. This cell line tested negative for mycoplasma.
The HTR1A-bla U2OS receptor cells containing the human 5-HT1AR linked to a TEV protease site and a Gal4-VP16 transcription factor were tested for recruitment of β-arrestin. […] The recruitment of β-arrestin were tested using the Tango LiveBLAzer assay kit according to the manufacturer’s instruction (Life Technologies). The assay plate was measured in FLUOstar Optima, a multifunction plate reader (BMG Lab Tech).

[2] = target: T3, histaminic H1 receptor (H1R) (Cavia porcellus, UniProt P31389); test: Smooth muscle relaxant assay: histamine-induced contraction of isolated guinea pig ileum; conditions: isolated guinea pig small intestine, histamine 2 μM
T3 construct: from tissue; host or cells: isolated guinea pig ileum
Method: as §1

[3] = target: serotonergic 5-HT7 receptor (5-HT7R); design: method as in PMID 27353547; conditions: ref [8]; cited from earlier work
[4] = tested on: adrenergic α1 receptors (α1R); test: Pressor response to methoxamine in anesthetized normotensive rats (adrenolytic activity); assay type: in vivo, Wistar rats; conditions: 10 mg/kg, 30 min prior to methoxamine 150 μg/kg
Method: In a separate series of experiments on anesthetized normotensive rats, the effect of studied compounds on the pressor response to methoxamine (Sigma Aldrich) (150 μg/kg) was investigated. Pressor responses to methoxamine injected intravenously were measured before and 30 min after the administration of the tested compound. The amplitudes of the pressure values were measured in 4 independent experiments.

PDE4B = tested on: PDE4B; design: method as in PMID 27353547; conditions: in vitro, bioluminescent detection system; ref [8]; cited from earlier work
[5] = target: serotonergic 5-HT1A receptor (5-HT1AR); design: method as in PMID 27353547; conditions: ref [8]; cited from earlier work
[6] = time 0 min (baseline), 10 mg/kg

T3 sequence (P31389 whole entry): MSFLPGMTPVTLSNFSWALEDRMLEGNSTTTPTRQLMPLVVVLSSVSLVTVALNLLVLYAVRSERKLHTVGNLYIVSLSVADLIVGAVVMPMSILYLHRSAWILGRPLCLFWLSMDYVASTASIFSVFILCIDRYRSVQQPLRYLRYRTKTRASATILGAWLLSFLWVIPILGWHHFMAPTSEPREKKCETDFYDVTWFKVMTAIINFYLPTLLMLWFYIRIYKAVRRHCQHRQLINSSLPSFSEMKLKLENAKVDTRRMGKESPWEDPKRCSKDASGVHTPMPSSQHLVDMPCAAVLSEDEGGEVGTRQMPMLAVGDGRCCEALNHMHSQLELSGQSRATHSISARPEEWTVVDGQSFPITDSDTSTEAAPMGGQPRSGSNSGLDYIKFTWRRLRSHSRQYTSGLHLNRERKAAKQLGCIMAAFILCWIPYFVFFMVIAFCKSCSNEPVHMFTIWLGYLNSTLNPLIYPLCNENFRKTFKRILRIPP
T1 sequence (H0W1Z3 1-590): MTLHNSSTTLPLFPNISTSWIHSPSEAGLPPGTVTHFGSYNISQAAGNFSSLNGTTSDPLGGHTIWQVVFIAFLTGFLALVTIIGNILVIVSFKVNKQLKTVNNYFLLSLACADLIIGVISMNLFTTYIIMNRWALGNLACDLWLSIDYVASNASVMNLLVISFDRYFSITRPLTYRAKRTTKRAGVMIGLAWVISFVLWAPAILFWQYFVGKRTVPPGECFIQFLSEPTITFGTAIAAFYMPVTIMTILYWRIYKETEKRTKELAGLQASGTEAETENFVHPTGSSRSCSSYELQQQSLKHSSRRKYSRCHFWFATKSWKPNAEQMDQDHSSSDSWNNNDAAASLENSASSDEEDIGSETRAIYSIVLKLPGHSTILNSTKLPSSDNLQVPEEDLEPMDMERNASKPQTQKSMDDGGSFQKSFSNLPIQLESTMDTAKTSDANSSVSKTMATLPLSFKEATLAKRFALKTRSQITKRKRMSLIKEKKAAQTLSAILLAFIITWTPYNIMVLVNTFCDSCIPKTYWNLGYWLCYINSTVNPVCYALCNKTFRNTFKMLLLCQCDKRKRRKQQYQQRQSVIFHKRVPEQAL

SMILES: Cn1c(=O)c2c(nc3n(CCCCN4CCN(c5ccccc5F)CC4)ccn23)n(C)c1=O [AZ-853, 8-(4-(4-(2-fluorophenyl)piperazin-1-yl)butyl)-1,3-dimethyl-1H-imidazo[2,1-f]purine-2,4(3H,8H)-dione]
- inhibition at 1 µM [1]: 2.5%
- effect on systolic blood pressure (normotensive rats; 10 mg/kg): did not significantly affect the systolic blood pressure
- reduction of diastolic blood pressure in relation to the baseline value (normotensive rats; 10 mg/kg): 13–15%
- DBP Mean (normotensive rats; 5 min): 88.3 mmHg
- SBP Mean (normotensive rats; 5 min): 131.2 mmHg
- DBP (individual animals) (normotensive rats; 5 min, 10 mg/kg): 85 mmHg and 88 mmHg and 83 mmHg and 95 mmHg and 91 mmHg
- SBP (individual animals) (normotensive rats; 5 min, 10 mg/kg): 143 mmHg and 116 mmHg and 120 mmHg and 123 mmHg and 163 mmHg and 122 mmHg
- DBP Mean (normotensive rats; 10 min): 84.8 mmHg
- SBP Mean (normotensive rats; 10 min): 130.0 mmHg
- DBP (individual animals) (normotensive rats; 10 min, 10 mg/kg): 82 mmHg and 81 mmHg and 85 mmHg and 91 mmHg and 84 mmHg and 86 mmHg
- SBP (individual animals) (normotensive rats; 10 min, 10 mg/kg): 144 mmHg and 112 mmHg and 127 mmHg and 119 mmHg and 162 mmHg and 116 mmHg
- DBP Mean (normotensive rats; 15 min): 83.2 mmHg
- SBP Mean (normotensive rats; 15 min): 128.5 mmHg
- DBP (individual animals) (normotensive rats; 15 min, 10 mg/kg): 80 mmHg and 81 mmHg and 84 mmHg and 88 mmHg and 82 mmHg
- SBP (individual animals) (normotensive rats; 15 min, 10 mg/kg): 140 mmHg and 113 mmHg and 130 mmHg and 116 mmHg and 160 mmHg and 112 mmHg
- DBP Mean (normotensive rats; 20 min): 83.0 mmHg
- SBP Mean (normotensive rats; 20 min): 125.5 mmHg
- DBP (individual animals) (normotensive rats; 20 min, 10 mg/kg): 75 mmHg and 76 mmHg and 85 mmHg and 88 mmHg and 86 mmHg
- SBP (individual animals) (normotensive rats; 20 min, 10 mg/kg): 132 mmHg and 110 mmHg and 128 mmHg and 113 mmHg and 161 mmHg
- DBP Mean (normotensive rats; 30 min): 83.2 mmHg
- SBP Mean (normotensive rats; 30 min): 122.8 mmHg
- DBP (individual animals) (normotensive rats; 30 min, 10 mg/kg): 80 mmHg and 76 mmHg and 84 mmHg and 87 mmHg and 86 mmHg and 85 mmHg
- SBP (individual animals) (normotensive rats; 30 min, 10 mg/kg): 136 mmHg and 109 mmHg and 126 mmHg and 110 mmHg and 160 mmHg and 112 mmHg
- DBP Mean (normotensive rats; 40 min): 82.5 mmHg
- SBP Mean (normotensive rats; 40 min): 126.2 mmHg
- DBP (individual animals) (normotensive rats; 40 min, 10 mg/kg): 80 mmHg and 76 mmHg and 86 mmHg and 88 mmHg and 83 mmHg
- SBP (individual animals) (normotensive rats; 40 min, 10 mg/kg): 138 mmHg and 110 mmHg and 125 mmHg and 111 mmHg and 159 mmHg
- DBP Mean (normotensive rats; 50 min): 83.2 mmHg
- SBP Mean (normotensive rats; 50 min): 125.7 mmHg
- DBP (individual animals) (normotensive rats; 50 min, 10 mg/kg): 83 mmHg and 82 mmHg and 84 mmHg and 86 mmHg and 97 mmHg and 85 mmHg
- SBP (individual animals) (normotensive rats; 50 min, 10 mg/kg): 139 mmHg and 113 mmHg and 119 mmHg and 167 mmHg and 111 mmHg
- DBP Mean (normotensive rats; 60 min): 86.2 mmHg
- SBP Mean (normotensive rats; 60 min): 127.0 mmHg
- DBP (individual animals) (normotensive rats; 60 min, 10 mg/kg): 84 mmHg and 80 mmHg and 83 mmHg and 86 mmHg and 82 mmHg
- SBP (individual animals) (normotensive rats; 60 min, 10 mg/kg): 136 mmHg and 111 mmHg and 116 mmHg and 110 mmHg and 157 mmHg and 107 mmHg
- DBP Mean (normotensive rats; 70 min): 84.7 mmHg
- SBP Mean (normotensive rats; 70 min): 125.3 mmHg
- DBP (individual animals) (normotensive rats; 70 min, 10 mg/kg): 84 mmHg and 85 mmHg and 89 mmHg and 82 mmHg
- SBP (individual animals) (normotensive rats; 70 min, 10 mg/kg): 138 mmHg and 116 mmHg and 120 mmHg and 111 mmHg and 160 mmHg and 107 mmHg
- DBP Mean (normotensive rats; 80 min): 83.2 mmHg
- SBP Mean (normotensive rats; 80 min): 123.2 mmHg
- DBP (individual animals) (normotensive rats; 80 min, 10 mg/kg): 85 mmHg and 80 mmHg and 82 mmHg and 89 mmHg and 81 mmHg
- SBP (individual animals) (normotensive rats; 80 min, 10 mg/kg): 137 mmHg and 112 mmHg and 115 mmHg and 108 mmHg and 160 mmHg and 107 mmHg
- DBP Mean (normotensive rats; time 0 min (baseline)): 97.2 mmHg
- SBP Mean (normotensive rats; time 0 min (baseline)): 131.0 mmHg
- DBP (individual animals) (normotensive rats; [6]): 97 mmHg and 98 mmHg and 91 mmHg and 84 mmHg and 100 mmHg and 113 mmHg
- SBP (individual animals) (normotensive rats; [6]): 129 mmHg and 140 mmHg and 120 mmHg and 119 mmHg and 122 mmHg and 156 mmHg
- EC50 (human 5-HT1AR): 4.17 nM
- Emax (human 5-HT1AR; U2OS, read-out: Emax (%) ± SEM, agonist mode): 93 ± 1.7%
- increased potency as compared to 5-HT (human 5-HT1AR; β-arrestin recruitment): 95 fold
- inhibition at 1 µM [2]: 94.8%
- Ki [3]: 508 nM
- mean reduction of blood pressure vs. methoxamine alone [4]: 95.5 mmHg
- PDE4B inhibitory activity (PDE4B): did not induce PDE4B and PDE10A inhibitory activity
- Ki [5]: 0.6 nM
